# From PMC12090182, “Repurposing of the RIPK1-Selective Benzo[1,4]oxazepin-4-one Scaffold for the Development of a Type III LIMK1/2 Inhibitor” (ACS Chemical Biology, 2025)
# Legend:
# Assay in all cases: scanMAX KINOMEscan (Eurofins)
# Type in all cases: binding
# [1] = molecular target: EPHB1 (Homo sapiens, UniProt P54762); conditions: 1000 nM, read-out: Percent Control
# Text: (§1) Supplement cb5c00097_si_002.xlsx, sheet "Table S6 (Eurofins Selectivity)" | column: Percent Control
# [2] = molecular target: LATS1 (Homo sapiens, UniProt O95835); conditions: 1000 nM, read-out: Percent Control
# Text: as §1
# [3] = molecular target: IKK-beta (Homo sapiens, UniProt O14920); conditions: read-out: Percent Control
# Text: as §1
# [4] = molecular target: GRK1 (Homo sapiens, UniProt Q15835); conditions: read-out: Percent Control
# GRK1, sequence (Q15835 whole entry): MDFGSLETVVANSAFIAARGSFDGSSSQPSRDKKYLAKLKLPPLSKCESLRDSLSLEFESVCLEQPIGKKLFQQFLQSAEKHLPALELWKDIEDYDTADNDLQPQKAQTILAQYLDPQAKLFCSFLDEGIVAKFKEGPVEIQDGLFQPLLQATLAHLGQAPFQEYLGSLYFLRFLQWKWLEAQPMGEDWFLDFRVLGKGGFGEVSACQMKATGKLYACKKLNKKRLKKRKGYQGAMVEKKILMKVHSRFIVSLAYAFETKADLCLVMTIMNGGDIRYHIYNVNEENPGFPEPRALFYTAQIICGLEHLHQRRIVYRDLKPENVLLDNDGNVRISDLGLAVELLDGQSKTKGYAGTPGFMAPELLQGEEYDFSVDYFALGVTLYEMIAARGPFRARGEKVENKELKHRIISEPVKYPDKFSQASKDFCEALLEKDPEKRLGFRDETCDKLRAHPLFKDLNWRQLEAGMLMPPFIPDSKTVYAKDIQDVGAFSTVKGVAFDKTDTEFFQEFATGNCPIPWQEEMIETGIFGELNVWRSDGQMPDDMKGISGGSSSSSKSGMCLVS
# Text: as §1
# [5] = molecular target: JNK2 (Homo sapiens, UniProt P45984); conditions: 1000 nM, read-out: Percent Control
# Text: as §1
# [6] = molecular target: TAOK2 (Homo sapiens, UniProt Q9UL54); conditions: 1000 nM, read-out: Percent Control
# Text: as §1
# [7] = molecular target: PYK2 (Homo sapiens, UniProt Q14289); conditions: 1000 nM, read-out: Percent Control
# Text: as §1
# [8] = molecular target: CSNK1G2 (Homo sapiens, UniProt P78368); conditions: read-out: Percent Control
# CSNK1G2, sequence (P78368 whole entry): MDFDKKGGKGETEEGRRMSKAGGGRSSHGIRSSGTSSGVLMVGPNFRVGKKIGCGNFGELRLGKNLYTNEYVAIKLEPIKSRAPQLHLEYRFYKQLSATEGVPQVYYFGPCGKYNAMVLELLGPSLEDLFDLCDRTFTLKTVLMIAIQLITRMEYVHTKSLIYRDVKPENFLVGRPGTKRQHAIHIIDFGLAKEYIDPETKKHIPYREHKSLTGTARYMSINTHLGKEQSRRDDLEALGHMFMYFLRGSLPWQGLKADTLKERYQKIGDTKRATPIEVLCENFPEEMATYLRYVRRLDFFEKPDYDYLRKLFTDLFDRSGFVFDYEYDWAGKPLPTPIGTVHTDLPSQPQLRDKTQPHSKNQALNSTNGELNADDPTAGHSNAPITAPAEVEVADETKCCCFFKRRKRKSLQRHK
# Text: as §1
# [9] = molecular target: PIP5K1C (Homo sapiens, UniProt O60331); conditions: compound concentration 100 nM; Entrez PIP5K1C; read-out: Percent Control
# Text: as §1
# [10] = molecular target: NDR2 (Homo sapiens, UniProt Q9Y2H1); conditions: 1000 nM, read-out: Percent Control
# Text: as §1
# [11] = molecular target: MARK3 (Homo sapiens, UniProt P27448); conditions: 1000 nM, read-out: Percent Control
# Text: as §1
# [12] = molecular target: JAK2(JH1domain-catalytic) (Homo sapiens, UniProt O60674); conditions: compound concentration 100 nM; Entrez JAK2; read-out: Percent Control
# Text: as §1
# [13] = molecular target: PHKG1 (Homo sapiens, UniProt Q16816); conditions: 1000 nM, read-out: Percent Control
# Text: as §1
# [14] = molecular target: EGFR (Homo sapiens, UniProt P00533); conditions: read-out: Percent Control
# EGFR, sequence (P00533 25-1210): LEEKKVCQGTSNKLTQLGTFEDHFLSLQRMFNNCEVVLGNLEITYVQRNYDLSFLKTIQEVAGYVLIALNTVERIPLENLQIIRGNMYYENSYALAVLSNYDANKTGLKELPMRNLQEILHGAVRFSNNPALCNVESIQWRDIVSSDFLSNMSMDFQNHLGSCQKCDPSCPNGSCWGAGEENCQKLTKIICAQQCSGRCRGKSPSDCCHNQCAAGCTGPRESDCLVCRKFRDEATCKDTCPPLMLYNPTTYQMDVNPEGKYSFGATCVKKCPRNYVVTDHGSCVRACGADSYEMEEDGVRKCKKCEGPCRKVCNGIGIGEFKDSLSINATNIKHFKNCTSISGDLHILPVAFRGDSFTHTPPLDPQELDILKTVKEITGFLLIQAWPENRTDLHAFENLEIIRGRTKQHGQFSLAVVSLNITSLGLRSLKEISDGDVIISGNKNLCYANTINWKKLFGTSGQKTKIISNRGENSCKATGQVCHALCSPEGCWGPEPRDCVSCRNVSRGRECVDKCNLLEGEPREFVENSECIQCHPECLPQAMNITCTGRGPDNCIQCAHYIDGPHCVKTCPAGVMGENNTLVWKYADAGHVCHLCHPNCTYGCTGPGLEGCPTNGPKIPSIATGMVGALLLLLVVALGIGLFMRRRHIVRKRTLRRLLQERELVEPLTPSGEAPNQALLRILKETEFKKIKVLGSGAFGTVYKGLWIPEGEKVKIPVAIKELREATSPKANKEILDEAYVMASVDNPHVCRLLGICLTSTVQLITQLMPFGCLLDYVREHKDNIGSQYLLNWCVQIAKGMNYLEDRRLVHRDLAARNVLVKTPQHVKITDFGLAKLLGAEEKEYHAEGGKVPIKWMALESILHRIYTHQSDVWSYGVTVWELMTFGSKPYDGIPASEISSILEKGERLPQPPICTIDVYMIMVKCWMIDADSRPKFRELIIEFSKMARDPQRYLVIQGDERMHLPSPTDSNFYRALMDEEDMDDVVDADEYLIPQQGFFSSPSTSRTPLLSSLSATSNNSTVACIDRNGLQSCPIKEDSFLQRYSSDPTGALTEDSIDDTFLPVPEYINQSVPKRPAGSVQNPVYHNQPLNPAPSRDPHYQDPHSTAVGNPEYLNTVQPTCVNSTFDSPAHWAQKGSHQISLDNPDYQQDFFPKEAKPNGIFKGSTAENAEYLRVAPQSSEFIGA
# Text: as §1
# [15] = molecular target: TSSK1B (Homo sapiens, UniProt Q9BXA7); conditions: 1000 nM, read-out: Percent Control
# Text: as §1
# [16] = molecular target: MYLK4 (Homo sapiens, UniProt Q86YV6); conditions: compound concentration 100 nM; Entrez MYLK4; read-out: Percent Control
# Text: as §1
# [17] = molecular target: ABL2 (Homo sapiens, UniProt P42684); conditions: read-out: Percent Control
# ABL2, sequence (P42684 whole entry): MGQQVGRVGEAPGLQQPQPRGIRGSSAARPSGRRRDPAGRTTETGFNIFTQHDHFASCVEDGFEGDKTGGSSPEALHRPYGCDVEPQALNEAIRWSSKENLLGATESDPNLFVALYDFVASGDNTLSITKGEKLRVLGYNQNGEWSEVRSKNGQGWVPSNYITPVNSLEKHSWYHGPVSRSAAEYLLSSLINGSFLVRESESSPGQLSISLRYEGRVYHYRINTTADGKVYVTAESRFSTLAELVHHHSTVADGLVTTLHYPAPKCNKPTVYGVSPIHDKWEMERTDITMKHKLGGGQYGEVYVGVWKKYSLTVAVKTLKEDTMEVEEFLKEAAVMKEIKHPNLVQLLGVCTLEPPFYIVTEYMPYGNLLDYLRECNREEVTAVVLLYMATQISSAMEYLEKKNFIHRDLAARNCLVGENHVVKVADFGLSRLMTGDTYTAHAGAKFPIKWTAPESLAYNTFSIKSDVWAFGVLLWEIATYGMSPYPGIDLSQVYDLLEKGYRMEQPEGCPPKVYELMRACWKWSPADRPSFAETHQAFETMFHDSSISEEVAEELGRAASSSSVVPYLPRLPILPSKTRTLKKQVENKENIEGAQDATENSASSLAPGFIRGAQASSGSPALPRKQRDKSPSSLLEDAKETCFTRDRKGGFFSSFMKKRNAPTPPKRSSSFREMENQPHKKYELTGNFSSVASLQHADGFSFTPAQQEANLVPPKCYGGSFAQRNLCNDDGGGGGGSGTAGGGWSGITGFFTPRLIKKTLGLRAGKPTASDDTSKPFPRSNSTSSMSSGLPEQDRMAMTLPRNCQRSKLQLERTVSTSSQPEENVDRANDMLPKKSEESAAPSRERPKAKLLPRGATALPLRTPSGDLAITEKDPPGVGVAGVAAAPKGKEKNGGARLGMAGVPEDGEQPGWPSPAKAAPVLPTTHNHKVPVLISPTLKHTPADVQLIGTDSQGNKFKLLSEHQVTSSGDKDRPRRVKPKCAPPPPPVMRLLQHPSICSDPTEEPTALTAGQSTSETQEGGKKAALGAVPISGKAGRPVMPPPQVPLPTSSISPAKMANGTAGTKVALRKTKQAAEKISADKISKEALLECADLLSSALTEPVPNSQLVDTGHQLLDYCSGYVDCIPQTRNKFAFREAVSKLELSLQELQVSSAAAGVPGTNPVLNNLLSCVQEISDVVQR
# Text: as §1
# [18] = molecular target: FGR (Homo sapiens, UniProt P09769); conditions: read-out: Percent Control
# FGR, sequence (P09769 whole entry): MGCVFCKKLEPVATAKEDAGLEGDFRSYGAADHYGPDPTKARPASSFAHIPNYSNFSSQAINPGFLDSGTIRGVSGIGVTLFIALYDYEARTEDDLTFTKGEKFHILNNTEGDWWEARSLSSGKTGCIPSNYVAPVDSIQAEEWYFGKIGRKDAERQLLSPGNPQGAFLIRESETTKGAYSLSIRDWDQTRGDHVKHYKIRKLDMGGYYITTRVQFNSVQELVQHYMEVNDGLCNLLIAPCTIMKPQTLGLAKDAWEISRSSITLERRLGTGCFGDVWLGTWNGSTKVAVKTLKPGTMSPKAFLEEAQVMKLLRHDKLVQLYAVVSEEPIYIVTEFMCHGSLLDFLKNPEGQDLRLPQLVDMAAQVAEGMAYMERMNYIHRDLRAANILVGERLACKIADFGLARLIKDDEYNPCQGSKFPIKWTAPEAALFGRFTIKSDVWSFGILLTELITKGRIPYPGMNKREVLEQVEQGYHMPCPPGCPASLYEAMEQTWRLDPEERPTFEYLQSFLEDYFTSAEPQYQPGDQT
# Text: as §1
# [19] = molecular target: RSK4(Kin.Dom.2-C-terminal) (Homo sapiens, UniProt Q9UK32); conditions: 1000 nM, read-out: Percent Control
# RSK4(Kin.Dom.2-C-terminal), sequence (Q9UK32 401-745): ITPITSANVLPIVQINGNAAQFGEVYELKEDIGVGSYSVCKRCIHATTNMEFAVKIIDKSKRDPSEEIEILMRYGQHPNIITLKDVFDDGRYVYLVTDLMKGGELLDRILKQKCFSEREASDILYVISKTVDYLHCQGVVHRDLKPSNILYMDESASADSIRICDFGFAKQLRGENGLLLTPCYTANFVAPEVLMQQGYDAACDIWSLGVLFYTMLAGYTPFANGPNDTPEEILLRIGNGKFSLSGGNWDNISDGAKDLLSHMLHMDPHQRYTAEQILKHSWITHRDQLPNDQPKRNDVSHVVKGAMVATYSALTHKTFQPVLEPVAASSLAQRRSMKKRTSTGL
# Text: as §1
# [20] = molecular target: CASK (Homo sapiens, UniProt O14936); conditions: read-out: Percent Control
# Text: as §1
# [21] = molecular target: TNNI3K (Homo sapiens, UniProt Q59H18); conditions: 1000 nM, read-out: Percent Control
# Text: as §1
# [22] = molecular target: DRAK1 (Homo sapiens, UniProt Q9UEE5); conditions: 1000 nM, read-out: Percent Control
# Text: as §1
# [23] = molecular target: CDC2L2 (Homo sapiens, UniProt Q9UQ88); conditions: 1000 nM, read-out: Percent Control
# Text: as §1
# [24] = molecular target: TIE2 (Homo sapiens, UniProt Q02763); conditions: compound concentration 100 nM; Entrez TEK; read-out: Percent Control
# Text: as §1
# [25] = molecular target: TRKA (Homo sapiens, UniProt P04629); conditions: 1000 nM, read-out: Percent Control
# Text: as §1
# [26] = molecular target: PIP5K1A (Homo sapiens, UniProt Q99755); conditions: 1000 nM, read-out: Percent Control
# Text: as §1
# [27] = molecular target: DRAK2 (Homo sapiens, UniProt O94768); conditions: 1000 nM, read-out: Percent Control
# Text: as §1
# [28] = molecular target: MINK (Homo sapiens, UniProt Q8N4C8); conditions: 1000 nM, read-out: Percent Control
# Text: as §1
# [29] = molecular target: BRSK1 (Homo sapiens, UniProt Q8TDC3); conditions: 1000 nM, read-out: Percent Control
# Text: as §1
# [30] = molecular target: TBK1 (Homo sapiens, UniProt Q9UHD2); conditions: 1000 nM, read-out: Percent Control
# Text: as §1
# [31] = molecular target: MEK2 (Homo sapiens, UniProt P36507); conditions: compound concentration 100 nM; Entrez MAP2K2; read-out: Percent Control
# Text: as §1
# [32] = molecular target: CSNK1A1 (Homo sapiens, UniProt P48729); conditions: 1000 nM, read-out: Percent Control
# Text: as §1
# [33] = molecular target: MARK4 (Homo sapiens, UniProt Q96L34); conditions: compound concentration 100 nM; Entrez MARK4; read-out: Percent Control
# Text: as §1
# [34] = molecular target: IRAK1 (Homo sapiens, UniProt P51617); conditions: read-out: Percent Control
# IRAK1, sequence (P51617 whole entry): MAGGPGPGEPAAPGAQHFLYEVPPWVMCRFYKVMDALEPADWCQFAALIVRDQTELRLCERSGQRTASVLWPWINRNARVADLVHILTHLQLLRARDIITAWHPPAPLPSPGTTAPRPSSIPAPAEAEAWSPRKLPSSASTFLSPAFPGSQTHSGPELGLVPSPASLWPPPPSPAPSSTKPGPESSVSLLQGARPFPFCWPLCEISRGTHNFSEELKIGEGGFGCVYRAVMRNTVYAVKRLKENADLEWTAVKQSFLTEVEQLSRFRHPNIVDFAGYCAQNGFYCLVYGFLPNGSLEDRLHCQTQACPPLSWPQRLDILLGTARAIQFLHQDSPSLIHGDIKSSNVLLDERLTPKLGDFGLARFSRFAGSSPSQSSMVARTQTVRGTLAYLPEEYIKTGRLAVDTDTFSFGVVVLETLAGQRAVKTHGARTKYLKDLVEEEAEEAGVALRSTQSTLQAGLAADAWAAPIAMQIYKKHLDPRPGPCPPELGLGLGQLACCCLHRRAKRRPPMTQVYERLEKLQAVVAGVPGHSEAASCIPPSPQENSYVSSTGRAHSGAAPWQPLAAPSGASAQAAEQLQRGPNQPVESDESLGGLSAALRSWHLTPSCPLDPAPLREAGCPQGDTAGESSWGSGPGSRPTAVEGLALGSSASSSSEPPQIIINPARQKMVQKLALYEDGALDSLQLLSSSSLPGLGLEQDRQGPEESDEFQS
# Text: as §1
# [35] = molecular target: WEE2 (Homo sapiens, UniProt P0C1S8); conditions: 1000 nM, read-out: Percent Control
# Text: as §1
# [36] = molecular target: LOK (Homo sapiens, UniProt O94804); conditions: 1000 nM, read-out: Percent Control
# Text: as §1
# [37] = molecular target: CAMKK2 (Homo sapiens, UniProt Q96RR4); conditions: 1000 nM, read-out: Percent Control
# Text: as §1
smiles,measurement,setting,value
"CN1C(=O)[C@@H](N2CCc3c(nn(Cc4ccccc4)c3C(N)=O)C2=O)COc2cc(Cl)ccc21 [Compound 10, (S)-2-benzyl-6-(8-chloro-5-methyl-4-oxo-2,3,4,5-tetrahydrobenzo[b][1,4]oxazepin-3-yl)-7-oxo-4,5,6,7-tetrahydro-2H-pyrazolo[3,4-c]pyridine-3-carboxamide]",remaining binding at 1 µM,[1],94%
same,remaining binding at 1 µM,[2],82%
same,remaining binding at 1 µM,[3]; 1000 nM,100%
same,remaining binding at 0.1 µM,"[3]; compound concentration 100 nM, Entrez IKBKB",97%
same,remaining binding at 1 µM,[4]; 1000 nM,100%
same,remaining binding at 0.1 µM,"[4]; compound concentration 100 nM, Entrez GRK1",100%
same,remaining binding at 1 µM,[5],89%
same,remaining binding at 1 µM,[6],90%
same,remaining binding at 1 µM,[7],82%
same,remaining binding at 1 µM,[8]; 1000 nM,100%
same,remaining binding at 0.1 µM,"[8]; compound concentration 100 nM, Entrez CSNK1G2",91%
same,remaining binding at 0.1 µM,[9],100%
same,remaining binding at 1 µM,[10],96%
same,remaining binding at 1 µM,[11],98%
same,remaining binding at 0.1 µM,[12],81%
same,remaining binding at 1 µM,[13],93%
same,remaining binding at 1 µM,[14]; 1000 nM,100%
same,remaining binding at 0.1 µM,"[14]; compound concentration 100 nM, Entrez EGFR",96%
same,remaining binding at 1 µM,[15],82%
same,remaining binding at 0.1 µM,[16],92%
same,remaining binding at 1 µM,[17]; 1000 nM,100%
same,remaining binding at 0.1 µM,"[17]; compound concentration 100 nM, Entrez ABL2",100%
same,remaining binding at 1 µM,[18]; 1000 nM,100%
same,remaining binding at 0.1 µM,"[18]; compound concentration 100 nM, Entrez FGR",77%
same,remaining binding at 1 µM,[19],93%
same,remaining binding at 1 µM,[20]; 1000 nM,100%
same,remaining binding at 0.1 µM,"[20]; compound concentration 100 nM, Entrez CASK",80%
same,remaining binding at 1 µM,[21],80%
same,remaining binding at 1 µM,[22],91%
same,remaining binding at 1 µM,[23],86%
same,remaining binding at 0.1 µM,[24],95%
same,remaining binding at 1 µM,[25],95%
same,remaining binding at 1 µM,[26],69%
same,remaining binding at 1 µM,[27],82%
same,remaining binding at 1 µM,[28],95%
same,remaining binding at 1 µM,[29],85%
same,remaining binding at 1 µM,[30],94%
same,remaining binding at 0.1 µM,[31],94%
same,remaining binding at 1 µM,[32],83%
same,remaining binding at 0.1 µM,[33],76%
same,remaining binding at 1 µM,[34]; 1000 nM,100%
same,remaining binding at 0.1 µM,"[34]; compound concentration 100 nM, Entrez IRAK1",100%
same,remaining binding at 1 µM,[35],82%
same,remaining binding at 1 µM,[36],97%
same,remaining binding at 1 µM,[37],80%
